From US10952999B2, “Inhibitor of cyclin-dependent kinase CDK9” (GENFLEET THERAPEUTICS (SHANGHAI) INC., priority 2017, dated 2021) come the findings set out here.

Test [1] relates to acute myelocytic leukemia cell line (AML) HL-60. Briefly: Effect on apoptosis, Western Blot of PARP and Caspase 3 shear. The class given is cell-based. To be noted: HL-60, 0.01-0.1 μM, 24 hours. From the text: (§1) Western Blot was used to detect the effects of drugs in different concentrations on DNA repair enzyme polyadenylation diphosphate-ribose polymerase PARP and protein shear of cysteine-containing aspartate proteolytic enzyme Caspase 3 at different time intervals.

In test [2] the test system is acute myelocytic leukemia cell line (AML) MV4-11. The description is as above. The note with it: MV4-11, 0.01-0.1 μM, 24 hours. Format: cell-based.
Text: as §1

Test [3] deals with acute myelocytic leukemia cell line (AML) OCI-AML-3. The test is described as above. The class given is cell-based. The note with it: OCI-AML-3, 0.01-0.1 μM, 24 hours.
Text: as §1

The test system of test [4] is acute promyelocytic leukemia cell line NB-4. The test is described as above. Format: cell-based. The note with it: NB-4, 0.01-0.1 μM, 24 hours.
Text: as §1

Test [5] shares this test system. Put plainly: Effect on cell cycle distribution, PI staining, flow cytometry. The class given is cell-based. The note with it: NB-4, 0.01-0.1 μM, 12, 24 or 48 hours. How it is done:
In order to study in which cycle the cells were prevented after administration, in the three cell lines, acute promyelocytic leukemia cell line NB-4, acute myelocytic leukemia cell line (AML) HL-60, and acute myelocytic leukemia cell line (AML) MV4-11, the effects of compound 1 on the cell cycle distribution of these cell lines were tested. […] The cell cycle distribution was measured by flow cytometry (BD FACS Calibur).

Test [6] deals with MV4-11 acute granulocyte leukemia cells. Put plainly: Human acute granulocyte leukemia MV4-11 mouse model, subcutaneous tumor. The class given is in vivo, mice. How it is done: 24 Bal b/c female mice, 4-6 weeks, were purchased from Shanghai Slack Laboratory Animals Co., Ltd. and kept in SPF laboratory. The drinking water and padding were aseptically treated by autoclaving. All operations were carried out under aseptic conditions. On day 0, 5×10^6MV4-11 acute granulocyte leukemia cells (purchased from ATCC) were subcutaneously injected into the left side of all mice' back. Starting on day 15, all mice were divided into four groups (6 mice per group), methyl cellulose (HKI) solvent was orally administered to the first group of mice per day; compound 1 at a dose of 10 mg/kg mice body weight was orally administered to the second group of mice per day; compound 1 at a dose of 20 mg/kg mice body weight was orally administered to the third group of mice per day; compound 1 at a dose of 30 mg/kg mice body weight was orally administered to the fourth group of mice per day. From the start of administration, the length/width of the subcutaneous tumor was measured with a vernier caliper every day, and the body weight of the mouse was recorded every day, and the effect of compound 1 on the body weight of the mouse was observed. On day 43, the mice were sacrificed, subcutaneous tumors were taken out, and tumors were weighed and compared, and then a sample of protein lysate was prepared from the tumor sample tissue for use. The trend of subcutaneous tumor growth was counted within day 16 to day 43, and the tumor volume was calculated as: length×width×width/2 mm^3.

Regarding `COC[C@@H](C)N[C@H]1CC[C@H](Nc2cc(-c3csc(NCC4(C#N)CCOCC4)n3)c(Cl)cn2)CC1` [Compound 1, 4-(((4-(5-chloro-2-(((1R,4r)-4-(((R)-1-methoxypropyl-2-yl)amino)cyclohexyl)amino)pyridin-4-yl)thiazol-2-yl)amino)methyl)tetrahydro-2H-pyran-4-carbonitrile], the “apoptosis (shear of PARP or Caspase 3)” value in test [1], in test [2], in test [3] and in test [4] was “could cause apoptosis” throughout. Moreover, the “effect on the cell cycle” value in test [5] was “blocked the cells in G0-G1 phase”. Moreover, the “growth of subcutaneous tumors (in words)” value in test [6] (10, 20, 30 mg/kg orally per day, Bal b/c mice) was “effective in inhibiting the growth of subcutaneous tumors”. The “tumor growth inhibition (TGI)” value in test [6] (high dose group (20, 30 mg/kg), orally per day, day 15 to day 43, Bal b/c mice) worked out at 98.7%. Further, the “weight of the subcutaneous tumor” value in test [6] (low dose group (10 mg/kg), orally per day, Bal b/c mice) is “significantly reduced”.
